Source: patent US20150064220A1, “METHODS FOR MODULATING CELL-MEDIATED IMMUNITY USING HUMAN MILK OLIGOSACCHARIDES” (ABBOTT LABORATORIES, priority 2012, published 2015)

Columns and labels:
[1] = test system: Peripheral blood mononuclear cells (PBMCs); assay: PBMC proliferation by tritiated thymidine incorporation, with or without the T-cell mitogen PHA; assay type: cell-based, piglets; conditions: 72 hours; for unstimulated peripheral blood mononuclear cell proliferation: HMO or HMO mixture 125 μg/mL alone (no PHA), FIG. 2; for PHA-stimulated peripheral blood mononuclear cell proliferation: HMO or HMO mixture 125 μg/mL with 25 μg/mL PHA, compared to cultures containing no HMO, FIG. 1
Experimental: T-cell mediated responses were assessed by proliferative responses to the T-cell mitogen phytohemagglutinin (PHA) (simulates infection). […] Peripheral blood mononuclear cells (PBMCs) were isolated using standard density gradient (Ficoll-Paque PLUS) techniques. Residual red blood cells were lysed with a hypotonic ammonium chloride solution. Cells were washed and resuspended in RPMI (Roswell Park Memorial Institute medium) media containing: 10% fetal bovine serum, 2 mM Glutamine, 1 mM sodium pyruvate, 20 mM HEPES (4-(2-hydroxyethyl)-1-piperazineethanesulfonic acid), 50 μg/mL gentamicin, 1000 IU/mL penicillin and 100 μg/mL streptomycin, at a concentration of 1×10^6/mL, and then cultured in the presence or absence of the individual HMOs or HMO mixtures at a concentration of 125 μg/mL, alone or in combination with 25 μg/mL PHA. Cells were cultured for 72 hours, and cellular proliferation was determined using standard tritiated thymidine incorporation methodology.

[2] = test system: T regulatory cells (FoxP3+, CD4+, CD25+) in mesenteric lymph nodes; assay: T-regulatory cells in mesenteric lymph nodes of orally supplemented mice, by flow cytometry; assay type: in vivo; conditions: oral 7.5 mg daily for 5 days versus PBS, day six, FIG. 3
Experimental: Mice were orally supplemented with 7.5 mg of 2′FL in 200 μL of PBS (n=5) or 200 μL of PBS (n=5) daily for 5 days. On day six, mice were sacrificed and lymphocytes from mesenteric lymph nodes were removed and isolated using standard methods. Mesenteric lymph node lymphocytes (MLNLs) were stained with fluorochrome labeled monoclonal antibodies specific for CD4 and CD25 surface markers. Cells were then fixed with a paraformaldehyde solution to maintain surface marker staining integrity. Stained MLNLs were permeabilized with a saponin-based solution to allow for intracellular uptake of monoclonal antibodies and then stained with a fluorochrome labeled monoclonal antibody specific for the transcription factor FoxP3. All cell preparation methods used were based on recommendations of the monoclonal antibody manufacturer. MLNL suspensions were analyzed by flow cytometery. FoxP3^+, CD4^+, and CD25^+ cells are classified T regulatory cells.

[3] = test system: gastrointestinal epithelial cells; conditions: Kuntz et al (2008); cited from earlier work

## 2′-fucosyllactose [2′FL]
[1]
  unstimulated peripheral blood mononuclear cell proliferation: decreased unstimulated peripheral blood mononuclear cell proliferation
[2]
  percentage of T-regulatory cells in mesenteric lymph nodes: generation of T regulatory cells

## 3-fucosyllactose [3′FL]
[1]
  unstimulated peripheral blood mononuclear cell proliferation: decreased unstimulated peripheral blood mononuclear cell proliferation

## CC(=O)N[C@H]1[C@H](O[C@H]2[C@@H](O)[C@@H](CO)O[C@@H](O[C@H]3[C@H](O)[C@@H](O)C(O)O[C@@H]3CO)[C@@H]2O)O[C@H](CO)[C@@H](O[C@@H]2O[C@H](CO)[C@H](O)[C@H](O)[C@H]2O)[C@@H]1O (mixture of isomers) [LNnT, Lacto-N-neotetraose]
[1]
  unstimulated peripheral blood mononuclear cell proliferation: this was not seen
  PHA-stimulated peripheral blood mononuclear cell proliferation: did not significantly enhance proliferation

## Fucosyllactose [FL]
[1]
  PHA-stimulated peripheral blood mononuclear cell proliferation: did not significantly enhance proliferation

## sialyllactose [SL]
[3]
  differentiation of gastrointestinal epithelial cells: increases differentiation
  proliferation of gastrointestinal epithelial cells: decreases proliferation
